Data: ChEMBL document CHEMBL1949671, “Design and synthesis of estrogen receptor degradation inducer based on a protein knockdown strategy” (Bioorg Med Chem Lett, 2012)
Activity calls are given as the source filed them. The rule behind the calls is not given here.

Experiments:
[1] = biological target: T1, Baculoviral IAP repeat-containing protein 2/Estrogen receptor (Homo sapiens) (UniProt P03372+Q13490); test: Binding affinity to cIAP1/ERalpha in human MCF7 cells assessed as proteasomal degradation of ERalpha at 10 to 30 uM after 6 hrs by Western blot analysis; format: cell-based
[2] = biological target: T1, Baculoviral IAP repeat-containing protein 2/Estrogen receptor (Homo sapiens); test: Binding affinity to cIAP1/ERalpha in human MCF7 cells assessed as proteasomal degradation of ERalpha after 6 hrs by Western blot analysis in presence of proteasome inhibitor MG132; format: cell-based

Activity [1] | Activity [2] | SMILES
Active | inactive | CCC(=C(c1ccc(O)cc1)c1ccc(OCCN(C)C(=O)CCNC(=O)[C@H](CC(C)C)NC(=O)[C@@H](O)[C@H](N)Cc2ccccc2)cc1)c1ccccc1
Active | inactive | CCC(=C(c1ccc(O)cc1)c1ccc(OCCN(C)C(=O)CCCCNC(=O)[C@H](CC(C)C)NC(=O)[C@@H](O)[C@H](N)Cc2ccccc2)cc1)c1ccccc1
Active | inactive | CCC(=C(c1ccc(O)cc1)c1ccc(OCCN(C)C(=O)CCCCCCNC(=O)[C@H](CC(C)C)NC(=O)[C@@H](O)[C@H](N)Cc2ccccc2)cc1)c1ccccc1
